# In patent US20220213030A1, “AMINOGUANIDINE HYDRAZONES AS RETROMER STABILIZERS USEFUL FOR TREATING NEUROLOGICAL DISEASES” (OSPEDALE SAN RAFFAELE SRL, priority 2019, published 2022):
# Entries after “also recorded” stand apart in the source; their conditions may differ.
# Key:
# VPS35 = VPS35 (Mus musculus, UniProt Q9EQH3+Q9QZ88); test: VPS35 levels in Neuro2a cells by Western blot (screening of amino guanidine hydrazones); type: cell-based; set-up: endogenous in cells; host or cells: Neuro2a; settings: 48 hours
# Protocol: To functionally screen the majority of synthetized amino guanidine hydrazones of the invention and determine their effects on the retromer complex, we incubated Neuro2a cells with each synthetized molecule at the concentration of 10 μM.
# The test was executed in triplicate for each tested compound of the invention, cells lysates were established after 48 hours' incubation, and levels of VPS35 were normalized on the housekeeping gene β-Actin by Western blot. We observed a preliminary SAR among the compounds.
# Fold changes are calculated over normalized VPS35 levels measured in vehicle-treated cells.
# Neuro2a cells were seeded on 12 wells multiwell at the concentration of 100 000 cells/well. Cells were incubated with each compound, including the standard R55, at 10 μM for 48 hours. Cells were then washed in PBS 1× and lysed in a buffer containing Tris-HCl 10 mM pH8, EDTA 1 mM pH8, NaCl 100 mM, NP40 1%, with protease inhibitor cocktail (Sigma) 1×. Using a cell scraper total lysates were collected from each well, quantified with BCA (BCA protein assay, Thermofisher). Five μg were resolved on precast 10% acrylamide gel (Biorad). Proteins were transferred to a PVDF membrane (Millipore) and western blot were performed using the following antibodies: goat αVPS35 (1:1000), mouse α-βActin (1:10000). Detection of proteins was obtained by a chemiluminescence detection kit (PerkinElmer).
# G93A mice = test: Motor neuron counts in ventral horn of lumbar spinal cord of G93A mice; type: in vivo, mouse; settings: 10 mg/kg daily, day 100
# Protocol: Mice were sacrificed at day 100, and lumbar SCs assayed for studying MNs cell morphology and numbers. We initially scored NeuN^+ neurons in the ventral horn of the SC to monitor bona fide motor neurons.
# Sections from mice (frozen cryo sections) or glass covers containing cells were washed three times in PBS 1× (Lonza, 5 min each), and incubated in the following blocking mix: PBS 1×/FBS 10% (Invitrogen), BSA 1 mg/mL (Sigma), TritonX100 0.1% (Sigma), for 1 h at room temperature. Antibodies were diluted in blocking mix and incubated at +4° C. overnight according manufacturer's instructions. The following day, sections were rinsed in PBS and fluorescent secondary antibodies—i.e. never deriving from the species from which the primary antibodies are derived—(Alexafluor conjugated) diluted in blocking mix, were used according to the manufacturer's instructions. Slides were incubated in Hoechst 33342 (Sigma) for nuclei counterstaining. When necessary, we performed antigens retrieval by boiling samples in 10 mM sodium citrate (pH 6) for 5 min. […]
# Mice were maintained under pathogen-free conditions at San Raffaele Hospital mouse facility (Milan, Italy). […] Animal cohort numbers were determined by power analysis based on preliminary results.
# [1] = tested on: Neuro2a cells transfected with G93A plasmids; test: LDH-Glo cytotoxicity assay in G93A-transfected Neuro2a; type: cell-based, mouse; settings: 10 μM
# Protocol: We next assayed cytotoxicity by measuring lactate dehydrogenase (LDH) release with a LDH-Glo™ cytotoxicity assay. Cells were treated with plasmids encoding G93A and the Sh56-RNAi sequence with or without compound 2a, while supernatants were used to measure LDH contents. Overexpression of G93A increased the release of LDH by Neuro2a cells, when compared with cells transfected with LacZ-encoding plasmids or with LacZ+Sh56 plasmids (FIG. 3E). […] On the other hand, LDH release increased when cells received G93A plasmids along with Sh56 plasmids.
# LDH cytotoxicity was run on 96 well plates using LDH-Glo™ Cytotoxicity Assay (Promega). Briefly, Neuro2a cells were transfected with plasmids encoding pCMV-LacZ; pcDNA3.1(+)SOD1G93A with or without VPS35 short interfering plasmids (Sh56) or compound 2a (10 μM). After 48 hours, 5 μl of supernatants were 100 fold diluted in LDH storage buffer (Tris-HCl 200 mM, 10% Glycerol, 1% BSA, Sigma-Aldrich) and used to determine LDH, according to manufacturer's recommendations. Maximum LDH Release Control was obtained lysing untreated Neuro2a cells with 2 μL of 10% Triton X-100 (Sigma-Aldrich). In each experiment we calculated % Cytotoxicity=(Exp.LDH Release-Medium Background)/(Max LDH Release Control-Medium Background), and we run parallel positive controls treating cells with 200 μM H2O2.
smiles,measurement,setting,value
"N=C(N)NN=Cc1cccc(C=NNC(=N)N)c1 [Compound 2a, 1,3-Bis-amino guanidine phenyl hydrazone]","Mean fold changes (VPS35 levels normalized on β-Actin, over vehicle-treated cells)","VPS35; 10 μM, independent cultures n=3",1.951
same,VPS35 levels (in words),VPS35; compounds at 10 μM,able to consistently increase VPS35 levels with a limited variability among replicates; also recorded: increased
same,numbers of NeuN+ motor neurons in the ventral horn,G93A mice,significantly higher numbers of motor neurons than vehicle-treated G93A mice
same,LDH release,[1]; cells transfected with G93A plasmids and Sh56 plasmids,high release of LDH was observed
same,LDH release,"[1]; cells transfected with G93A plasmids, 48 hours",significantly reduced LDH release
